Data from patent US20260325469A1, “COMPOSITION FOR ANIMALS” (priority 2023, published 2026).

Columns and labels:
[1] = Solubility in concentrated stock solution; type: physicochemical; conditions: concentrated stock solution / acidic solutions
Text: A concentrated stock solution is required to facilitate administration through drinking water.

[2] = test system: E. coli cells producing F4 fimbriae; assay: Example 4.1: E. coli agglutination test; type: cell-based; conditions: concentrations identical to Example 3.1; OD450 1.5 cells, 5 μL + 5 μL on glass plate
Procedure: The effect of three different compositions on E. coli agglutination were tested: (i) lactic acid and acetic acid, (ii) tannic acid, (iii) lactic acid, acetic acid and tannic acid.
A recombinant E. coli strain constitutively expressing F4 fimbriae was washed three times with 0.9% sodium chloride, and cells corresponding to an optical density (OD450) of 1.5 were resuspended in 50 μL of 0.9% sodium chloride.
5 μL of the cell suspension was mixed with 5 μL of either (i) lactic acid and acetic acid, (ii) tannic acid or (iii) lactic acid, acetic acid and tannic acid on the surface of a glass plate.
The concentration of each of these components were identical to those delivered to the pigs in Example 3.1.

[3] = Example 1.3: feeding experiments, TLA composition via drinking water, feed free from medical zinc, weight gain and diarrhoea; type: in vivo, piglets (day-one weaned); conditions: comparison of AWG ratio with Example 1.2, light diarrhoea environment
Procedure: In Example 1.3, a composition comprising [COMPOUND LEFT OUT] lactic acid, [COMPOUND LEFT OUT] acetic acid and tannic acid was administered to piglets in combination with a feed free from medical zinc.
A batch solution was prepared using [COMPOUND LEFT OUT] lactic acid (80% lactic acid, Frederiksen, DK); acetic acid (5%, Organic Vinegar, Netto, DK) and tannic acid (Sigma) corresponding to a content of 10% Tannic acid, 69% lactic acid and 1.4% acetic acid. This composition is hereafter named TLA stock (tannic acid, lactic acid and acetic acid stock).
Two independent one-week feeding experiments were carried out with day-one weaned piglets (Example 1.3.1 and 1.3.2).
The concentrated TLA stock feed additive was prepared and used to mix with the standard setup for drinking water used by the weaned pigs at the farm. The dry feed is as described above.
The feed received by both the test and control groups was free from medical zinc. In each experiment, two test groups were administered the TLA composition in drinking water while two control groups received standard tap water. The total weight of all piglets in each group was measured at the initiation of the experiment (Day 0, “Start total weight”) and after one (Day 7) and two weeks (Day 14) as indicated (“End total weight”). […]
Following one-week administration, the total weight gain of each group was monitored. […]

| Molecule | Solubility [1] | E. coli agglutination [2] | Contribution of tannic acid to weight increase [3] |
| --- | --- | --- | --- |
| albumin-tannate [reference compound] | problems with solubility, resulting in non-homogeneous solutions comprising a precipitate | – | – |
| O=C(OC[C@H]1O[C@@H](OC(=O)c2cc(O)c(O)c(OC(=O)c3cc(O)c(O)c(O)c3)c2)[C@H](OC(=O)c2cc(O)c(O)c(OC(=O)c3cc(O)c(O)c(O)c3)c2)[C@@H](OC(=O)c2cc(O)c(O)c(OC(=O)c3cc(O)c(O)c(O)c3)c2)[C@@H]1OC(=O)c1cc(O)c(O)c(OC(=O)c2cc(O)c(O)c(O)c2)c1)c1cc(O)c(O)c(OC(=O)c2cc(O)c(O)c(O)c2)c1 [tannic acid, 1,2,3,4,6-penta-O-{3,4-dihydroxy-5-[(3,4,5-trihydroxybenzoyl)oxy]benzoyl}-D-glucopyranose] | high solubility in acidic solutions | does not show any significant aggregation of the cells | additional effect of tannic acid in the increase in weight |
